Tests used:
bedstraw = experiment: Test B pre/postemergence bedstraw; type: in vivo, Galium aparine; settings: Preemergence, Rate 62 g/ha; scale 0 to 10 (0 no effect, 10 complete control)
In short: (§1)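 Test chemicals in a non-phytotoxic solvent mixture with surfactant were sprayed preemergence onto planted seeds and postemergence onto plants 2 to 18 cm tall (1- to 4-leaf stage). After twelve to sixteen days in a greenhouse, injury was visually rated against untreated controls from 0 (no effect) to 10 (complete control).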

surinam grass = experiment: Test B pre/postemergence surinam grass; type: in vivo, Brachiaria decumbens
In short: as §1

cocklebur = experiment: Test B pre/postemergence cocklebur; type: in vivo, Xanthium strumarium
In short: as §1

corn = experiment: Test B pre/postemergence corn; type: in vivo, Zea mays
In short: as §1

giant foxtail = experiment: Test B pre/postemergence giant foxtail; type: in vivo, Setaria faberii
In short: as §1

pigweed = experiment: Test B pre/postemergence pigweed; type: in vivo, Amaranthus retroflexus
In short: as §1

rape = experiment: Test B pre/postemergence rape; type: in vivo, Brassica napus
In short: as §1

soybean = experiment: Test B pre/postemergence soybean; type: in vivo, Glycine max
In short: as §1

sugar beet = experiment: Test B pre/postemergence sugar beet; type: in vivo, Beta vulgaris
In short: as §1

velvetleaf = experiment: Test B pre/postemergence velvetleaf; type: in vivo, Abutilon theophrasti
In short: as §1

wheat = experiment: Test B pre/postemergence wheat; type: in vivo, Triticum aestivum
In short: as §1

wild oat = experiment: Test B pre/postemergence wild oat; type: in vivo, Avena fatua
In short: as §1

purple nutsedge = experiment: Test B pre/postemergence purple nutsedge; type: in vivo, Cyperus rotundus
In short: as §1

rice = experiment: Test B flood test rice; type: in vivo, Oryza sativa
In short: (§2)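 Plants were grown to the 2-leaf stage before treatment with test chemical, then held in a greenhouse for twelve to sixteen days. Injury was visually rated against untreated controls on a 0–10 scale, where 0 is no effect and 10 is complete control.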

smallflower flatsedge = experiment: Test B flood test smallflower flatsedge; type: in vivo, Cyperus difformis
In short: as §2

duck salad = experiment: Test B flood test duck salad; type: in vivo, Heteranthera limosa
In short: as §2

[1] = Postemergence, Rate 125 g/ha, scale 0 to 10, 0 is no effect, 10 is complete control
[2] = Postemergence, Rate 250 g/ha, scale 0 to 10, 0 is no effect, 10 is complete control
[3] = Postemergence, Rate 500 g/ha, scale of 0 to 10 where 0 is no effect and 10 is complete control
[4] = Preemergence, Rate 62 g/ha, scale 0 to 10 (0 no effect, 10 complete control)
[5] = Preemergence, Rate 125 g/ha, scale of 0 to 10 where 0 is no effect and 10 is complete control
[6] = Preemergence, Rate 250 g/ha, scale of 0 to 10 where 0 is no effect and 10 is complete control
[7] = Preemergence, Rate 500 g/ha, scale of 0 to 10 where 0 is no effect and 10 is complete control
[8] = Rate 62 g/ha, Postemergence, scale of 0 to 10 where 0 is no effect and 10 is complete control
[9] = Rate 62 g/ha, flood test species, Pre-emergence, visual evaluation after twelve to sixteen days
[10] = Rate 125 g/ha, under heading Pre-emergence, flood test species, visual evaluation after twelve to sixteen days
[11] = Rate 250 g/ha, Pre-emergence, flood-test species, scale 0 to 10, 0 is no effect, 10 is complete control
[12] = Rate 500 g/ha, Pre-emergence, flood test species, scale 0 to 10 (0 no effect, 10 complete control)

SMILES: CC(C)N(C(=O)n1oc(=O)n(C(C)Cl)c1=O)c1ccc(F)cc1 (stereo not shown) [Compound 393]
- Plant response rating, Bedstraw (bedstraw): 0
- Plant response rating, B. signalgrass (surinam grass; [1]): 0
- Plant response rating, B. signalgrass (surinam grass; [2]): 0
- B. signalgrass plant response rating (surinam grass; [3]): 0
- Plant response rating, B. signalgrass (surinam grass; [4]): 0
- Plant response rating, B. signalgrass (surinam grass; [5]): 0
- B. signalgrass plant response rating (surinam grass; [6]): 0
- B. signalgrass plant response rating (surinam grass; [7]): 2
- B. signalgrass plant response rating (surinam grass; [8]): 0
- Plant response rating, Cocklebur (cocklebur; [1]): 0
- Plant response rating, Cocklebur (cocklebur; [2]): 0
- Cocklebur plant response rating (cocklebur; [3]): 0
- Plant response rating, Cocklebur (cocklebur; [4]): 0
- Plant response rating, Cocklebur (cocklebur; [5]): 0
- Cocklebur plant response rating (cocklebur; [6]): 0
- Cocklebur plant response rating (cocklebur; [7]): 0
- Cocklebur plant response rating (cocklebur; [8]): 0
- Plant response rating, Corn (corn; [1]): 0
- Plant response rating, Corn (corn; [2]): 0
- Corn plant response rating (corn; [3]): 0
- Plant response rating, Corn (corn; [4]): 0
- Plant response rating, Corn (corn; [5]): 0
- Corn plant response rating (corn; [6]): 0
- Corn plant response rating (corn; [7]): 0
- Corn plant response rating (corn; [8]): 0
- Plant response rating, Giant foxtail (giant foxtail; [1]): 8
- Plant response rating, Giant foxtail (giant foxtail; [2]): 9
- Giant foxtail plant response rating (giant foxtail; [3]): 9
- Plant response rating, Giant foxtail (giant foxtail; [4]): 1
- Plant response rating, Giant foxtail (giant foxtail; [5]): 9
- Giant foxtail plant response rating (giant foxtail; [6]): 10
- Giant foxtail plant response rating (giant foxtail; [7]): 10
- Giant foxtail plant response rating (giant foxtail; [8]): 5
- Plant response rating, Redroot pigweed (pigweed; [2]): 0
- Redroot pigweed plant response rating (pigweed; [3]): 0
- Plant response rating, Redroot pigweed (pigweed; [4]): 0
- Plant response rating, Redroot pigweed (pigweed; [5]): 2
- Redroot pigweed plant response rating (pigweed; [6]): 2
- Redroot pigweed plant response rating (pigweed; [7]): 10
- Redroot pigweed plant response rating (pigweed; [8]): 0
- Plant response rating, Rape (rape; [2]): 3
- Plant response rating, Rape (rape; [4]): 0
- Plant response rating, Rape (rape; [5]): 0
- Rape plant response rating (rape; [6]): 0
- Rape plant response rating (rape; [7]): 0
- Plant response rating, Soybean (soybean; [2]): 2
- Soybean plant response rating (soybean; [3]): 2
- Plant response rating, Soybean (soybean; [4]): 0
- Plant response rating, Soybean (soybean; [5]): 0
- Soybean plant response rating (soybean; [6]): 0
- Soybean plant response rating (soybean; [7]): 0
- Soybean plant response rating (soybean; [8]): 1
- Plant response rating, Sugarbeets (sugar beet; [2]): 0
- Sugarbeets plant response rating (sugar beet; [3]): 7
- Plant response rating, Sugarbeets (sugar beet; [4]): 0
- Plant response rating, Sugarbeets (sugar beet; [5]): 2
- Sugarbeets plant response rating (sugar beet; [6]): 2
- Sugarbeets plant response rating (sugar beet; [7]): 3
- Sugarbeets plant response rating (sugar beet; [8]): 0
- Plant response rating, Velvetleaf (velvetleaf; [2]): 0
- Velvetleaf plant response rating (velvetleaf; [3]): 0
- Plant response rating, Velvetleaf (velvetleaf; [4]): 0
- Plant response rating, Velvetleaf (velvetleaf; [5]): 0
- Velvetleaf plant response rating (velvetleaf; [6]): 0
- Velvetleaf plant response rating (velvetleaf; [7]): 0
- Velvetleaf plant response rating (velvetleaf; [8]): 0
- Wheat plant response rating (wheat; [3]): 0
- Plant response rating, Wheat (wheat; [4]): 0
- Plant response rating, Wheat (wheat; [5]): 0
- Wheat plant response rating (wheat; [6]): 0
- Wheat plant response rating (wheat; [7]): 0
- Wheat plant response rating (wheat; [8]): 0
- Wild oats plant response rating (wild oat; [3]): 0
- Plant response rating, Wild oats (wild oat; [4]): 0
- Plant response rating, Wild oats (wild oat; [5]): 0
- Wild oats plant response rating (wild oat; [6]): 0
- Wild oats plant response rating (wild oat; [7]): 3
- Wild oats plant response rating (wild oat; [8]): 0
- Plant response rating, Nutsedge (purple nutsedge; [2]): 0
- Nutsedge plant response rating (purple nutsedge; [3]): 0
- Plant response rating, Nutsedge (purple nutsedge; [4]): 0
- Plant response rating, Nutsedge (purple nutsedge; [5]): 0
- Nutsedge plant response rating (purple nutsedge; [6]): 0
- Nutsedge plant response rating (purple nutsedge; [7]): 0
- Nutsedge plant response rating (purple nutsedge; [8]): 0
- Plant response rating, Rice (0 to 10 scale, 0 is no effect, 10 is complete control) (rice; [9]): 0
- Rice plant response rating (0 to 10 scale, 0 is no effect, 10 is complete control) (rice; [10]): 0
- Rice plant response rating (rice; [11]): 0
- Rice plant response rating (rice; [12]): 0
- Plant response rating, S. Flatsedge (0 to 10 scale, 0 is no effect, 10 is complete control) (smallflower flatsedge; [9]): 0
- S. Flatsedge plant response rating (0 to 10 scale, 0 is no effect, 10 is complete control) (smallflower flatsedge; [10]): 0
- S. Flatsedge plant response rating (smallflower flatsedge; [11]): 0
- S. Flatsedge plant response rating (smallflower flatsedge; [12]): 0
- Plant response rating, Ducksalad (0 to 10 scale, 0 is no effect, 10 is complete control) (duck salad; [9]): 0
- Ducksalad plant response rating (0 to 10 scale, 0 is no effect, 10 is complete control) (duck salad; [10]): 0
- Ducksalad plant response rating (duck salad; [11]): 0
- Ducksalad plant response rating (duck salad; [12]): 0

— patent US6737383B1, “Herbicidal oxadiazolidines” (priority 1999, dated 2004)
